# Molecular target: T1, mutant integrin CD11bE320A/CD18 (Homo sapiens, UniProt P11215, E336A)
# T1 construct: expressed in transfected cells; host or cells: K562 (ATCC)
# Experiment: HTS cell adhesion assay, K562 E320A cells on immobilized fibrinogen
# Format: cell-based
# Conditions: Table 3, adhesion to fibrinogen, five point dose-response
# Protocol: K562 cells stably expressing CD11c/CD18 (K562 CD11c/CD18) were generated similarly. […] K562 cells stably transfected with mutant integrin CD11bE320A/CD18 (K562 E320A) were generated according to literature protocols. All cell lines were maintained in Iscove's Modified Dulbecco's Medium (IMDM) supplemented with 10% heat-inactivated fetal bovine serum, 50 IU/mL penicillin and streptomycin and 0.5 mg/mL G418.
# Cell adhesion assays with immobilized ligands were performed using the general protocol previously described and as illustrated in FIG. 1 [33]. Assays with all different K562 cell lines (K562, K562 CD11b/CD18, K562 CD11c/CD18 and K562 E320A) were performed in an identical fashion. Briefly, 384-well microplates (Corning 3700) were coated with 15 μg/mL fibrinogen (Fg) ligand in PBS^++ overnight at 4° C. At the same time, anti-CD18 (IB4) mAb was also coated. Subsequently, the coated wells were washed with 1% nonfat milk in TBS at room temperature for 1 hour. Next, the wells were washed 3 times with TBS, and the coated microplates were used in the HTS assays.
# K562 CD11b/CD18, K562 CD11bE320A/CD18 and K562 CD11c/CD18 cells were washed with TBS, and cells were transferred to the Fg-coated wells of microplates in the assay buffer (Ca^2+ and Mg^2+ for physiological condition, Mn^2+ as the Positive control). A 1 μL aliquot of the compounds were transferred to each washed well with multichannel pipet from the 384-well plates.
# The assay plates were incubated at 37° C. in the presence of small-molecule compounds for 30 min. To dislodge the non-adherent cell, the assay plates were gently inverted and kept in inverted position for 20 min at room temperature.
# The cells were fixed with 37% formaldehyde in a small volume and the plates were kept inverted for 1 h. Upon the fixation, the solutions in the well were discarded. Next, the cells were fluorescently labeled with DAPI (0.5 μM final in TBS with 0.1% Triton X-100) and the quantitated with “Opera High Content Screening System” (Perkin Elmer).
# Cell-adhesion under positive and negative control conditions was used to define the activity scale; signal corresponding to the number of non-small molecule treated cells adherent in activating buffer condition (in the presence of Mn^2+ ions as agonist, PC) was considered maximum (100% binding) and the signal corresponding to the number of non-small molecule treated cells adherent in basal buffer condition (in the presence of 1 mM each of Ca^2+ and Mg^2+, NC) was considered minimum (0% binding).
# T1 sequence (P11215 17-1152 E336A): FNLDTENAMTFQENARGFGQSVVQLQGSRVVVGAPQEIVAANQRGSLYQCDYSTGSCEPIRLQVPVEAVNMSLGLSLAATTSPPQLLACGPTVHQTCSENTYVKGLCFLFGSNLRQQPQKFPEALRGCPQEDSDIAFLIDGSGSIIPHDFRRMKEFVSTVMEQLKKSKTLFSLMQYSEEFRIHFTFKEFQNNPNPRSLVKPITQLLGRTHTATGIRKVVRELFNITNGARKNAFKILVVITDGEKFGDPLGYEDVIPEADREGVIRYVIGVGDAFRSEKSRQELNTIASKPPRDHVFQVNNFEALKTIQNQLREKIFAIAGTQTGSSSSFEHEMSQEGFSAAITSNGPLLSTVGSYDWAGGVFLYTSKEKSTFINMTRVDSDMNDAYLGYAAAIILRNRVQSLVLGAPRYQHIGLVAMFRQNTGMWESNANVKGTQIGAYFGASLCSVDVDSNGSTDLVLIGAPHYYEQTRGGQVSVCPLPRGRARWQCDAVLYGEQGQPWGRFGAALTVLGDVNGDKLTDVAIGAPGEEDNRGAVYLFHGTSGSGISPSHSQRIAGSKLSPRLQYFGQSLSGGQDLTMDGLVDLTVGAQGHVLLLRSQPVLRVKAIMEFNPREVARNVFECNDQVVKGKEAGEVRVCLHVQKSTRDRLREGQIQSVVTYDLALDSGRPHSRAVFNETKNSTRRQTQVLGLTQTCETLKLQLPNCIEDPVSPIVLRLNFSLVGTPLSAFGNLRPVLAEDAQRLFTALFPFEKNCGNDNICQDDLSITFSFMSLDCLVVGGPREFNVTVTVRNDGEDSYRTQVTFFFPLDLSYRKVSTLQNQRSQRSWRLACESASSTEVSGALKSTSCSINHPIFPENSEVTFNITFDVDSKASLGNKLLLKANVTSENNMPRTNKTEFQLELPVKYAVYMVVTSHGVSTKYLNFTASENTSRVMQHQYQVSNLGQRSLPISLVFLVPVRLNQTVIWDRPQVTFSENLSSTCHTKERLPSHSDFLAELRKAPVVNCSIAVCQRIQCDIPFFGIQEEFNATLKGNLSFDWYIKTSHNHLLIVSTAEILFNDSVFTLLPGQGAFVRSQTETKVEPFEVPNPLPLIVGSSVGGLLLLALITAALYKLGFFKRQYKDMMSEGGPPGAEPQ
# T1 sequence (P05107 23-769 partner): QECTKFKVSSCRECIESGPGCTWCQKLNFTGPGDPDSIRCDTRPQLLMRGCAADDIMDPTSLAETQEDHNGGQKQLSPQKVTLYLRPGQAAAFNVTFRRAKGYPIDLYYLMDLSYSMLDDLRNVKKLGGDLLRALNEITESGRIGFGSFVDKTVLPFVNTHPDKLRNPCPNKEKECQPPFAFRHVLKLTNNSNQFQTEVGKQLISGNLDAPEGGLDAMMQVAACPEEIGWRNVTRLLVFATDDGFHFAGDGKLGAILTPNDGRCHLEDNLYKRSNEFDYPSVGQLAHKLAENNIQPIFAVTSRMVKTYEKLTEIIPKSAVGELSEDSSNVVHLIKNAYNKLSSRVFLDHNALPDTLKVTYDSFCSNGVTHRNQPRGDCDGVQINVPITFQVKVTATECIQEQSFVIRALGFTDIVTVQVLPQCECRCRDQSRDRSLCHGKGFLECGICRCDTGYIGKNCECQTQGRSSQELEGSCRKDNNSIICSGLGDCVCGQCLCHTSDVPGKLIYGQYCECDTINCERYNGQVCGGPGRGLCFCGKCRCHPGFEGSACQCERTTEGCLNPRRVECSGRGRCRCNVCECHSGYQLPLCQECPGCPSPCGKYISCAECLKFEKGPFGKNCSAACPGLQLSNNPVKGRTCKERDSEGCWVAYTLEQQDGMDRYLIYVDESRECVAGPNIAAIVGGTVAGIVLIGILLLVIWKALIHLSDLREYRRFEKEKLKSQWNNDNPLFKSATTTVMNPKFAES
Compound,EC50 [µM],EC50 E320A
Cc1ccc2nc3sc(C(=O)Nc4ccc(N5CCOCC5)cc4)c(N)c3cc2c1 [Compound 1442651],10.8,–
COc1ccc(C(=O)Nc2ccc(N3CCN(c4ccc(OC)cc4)CC3)c(C#N)c2)cc1 [Compound 3241486],9.08,–
CCOC(=O)C1CCN(S(=O)(=O)c2ccc(-c3nc4ccccc4s3)s2)CC1 [Compound 3241379],12.6,–
Cc1ccc(NC(=O)COc2ccc(/C=C3/SC(=Nc4ccccc4)N(Cc4cccnc4)C3=O)cc2)cc1 [Compound 11840403],13.4,–
CC(=O)c1ccc(NC(=O)CSc2ccc(-c3ccc4c(c3)OCO4)nn2)cc1 [Compound 7206282],10.7,–
Cn1c(SCC(=O)Nc2ccc3c(c2)oc2ccccc23)nnc1-c1ccccc1 [Compound 2193118],38.2,–
CSCCOC(=O)c1[nH]c2c(c1C)C(=O)CC(c1ccco1)C2 (centres unmarked) [Compound 3162305],10.4,–
O=C1c2cccc(OCC(=O)N3N=C(c4cccs4)CC3c3ccc(F)cc3)c2CCN1Cc1cccnc1 (centres unmarked) [Compound 4168394],8.85,–
CCN(CC)C(=O)c1sc(NC(=O)c2cc(-c3ccc(C)s3)nc3ccccc23)c(C(=O)OC)c1C [Compound 1219756],9.94,–
O=C(Nc1nc2c(s1)CCCC2)c1cc(-c2ccncc2)nc2ccccc12 [Compound 2462581],12.6,–
CC(C)c1nnc(NC(=O)c2c(O)c3cccc4c3n(c2=O)CCC4)s1 [Compound 54680928],16.1,–
COc1ccc(-n2c(SCC(=O)Nc3nccs3)nc3sc4c(c3c2=O)CCN(C)C4)cc1 [Compound 664564],20.4,–
CCC(C)N1C(=O)/C(=C/c2ccc3c(c2)CCN3CCCCl)C(=O)NC1=S (centres unmarked) [Compound 6513263],13.9,–
COc1ccc2nc(O)c(CN(C3CCCCC3)C(c3nnnn3Cc3ccco3)C(C)C)cc2c1 (centres unmarked) [Compound 650199],13.3,–
O=[N+]([O-])c1ccc(-c2ccc(/C=N/c3c(-c4ccco4)nc4ccccn34)o2)c(Cl)c1 [Compound 9617832],11.7,–
Cc1ccnc(N/C=C(\C#N)c2nc(-c3cccc(Br)c3)cs2)c1 [Compound 1352154],8.01,–
COc1cccc2sc(Nc3nc(-c4cc5ccccc5oc4=O)cs3)nc12 [Compound 7109922],8.76,–
Cc1ccc(/C=C/C(=O)Nc2nnc(SCc3ccc(C#N)cc3)s2)o1 [Compound 2126150],–,Infinite
Cc1sc2nc(CSc3nc4ccccc4c(=O)n3CCCN3CCOCC3)[nH]c(=O)c2c1C [Compound 2566737],8.42,–
COc1ccc2cc(/C=N/NC(=O)c3ccc(CN(c4ccc(C)c(C)c4)S(C)(=O)=O)cc3)c(Cl)nc2c1 [Compound 9564362],12.2,–
N#Cc1c(-c2ccccc2)cc(-c2ccco2)c(C#N)c1N [Compound 625239],7.74,–
O=C(/C=C/c1ccc(Cl)cc1)NC(=S)Nc1ccc(N2CCOCC2)c(Cl)c1 [Compound 1345254],7.53,–

Compound,EC50 [µM],EC50 E320A
CCOc1ccc(C(=O)Nc2ccc(N3CCCC3)cc2)cc1 [Compound 650825],9.86,–
O=C(CNS(=O)(=O)c1cccc(Cl)c1)Nc1ccc(-c2nc3ccccc3s2)cc1 [Compound 984329],9.23,–
CCn1c(COc2ccc3c(c2)CCCC3)nnc1SCC(=O)Nc1ccc(C(=O)OC)cc1 [Compound 2958500],8.94,–
CCC(=O)Nc1ccc(C(=O)CSc2nnc(-c3ccccc3F)n2C2CC2)cc1 [Compound 2448744],21.8,–
COC(=O)c1c(NC(=O)CN2CCC3(O)CCCCC3C2c2ccc(OC)cc2OC)sc(C)c1C (centres unmarked) [Compound 4971819],60.2,–
Cc1ccc(CN2C(=O)C3CCCN3c3ccc(S(=O)(=O)N4CCOCC4)cc32)cc1 (centres unmarked) [Compound 2766156],10.7,–
COc1ccc2c(c1)c1nc3ccccc3nc1n2Cc1ccc(OC)c(OC)c1 [Compound 2023256],26.1,–
COc1ccc(C2C(C(C)=O)=C(C)N=c3s/c(=C/c4ccc5c(c4)OCO5)c(=O)n32)cc1 (centres unmarked) [Compound 5287341],8.98,–
COc1ccc(N(CC(=O)N/N=C/c2ccc(-c3ccc([N+](=O)[O-])cc3)o2)S(=O)(=O)c2ccc(C)cc2)cc1 [Compound 5334631],13,–
COc1ccc(/C=N/NC(=O)C2c3ccccc3-c3ccccc32)cc1 [Compound 9557044],10.5,–
Cc1ccc(C)c(N(CC(=O)N/N=C/c2ccc(-c3ccc([N+](=O)[O-])cc3)o2)S(=O)(=O)c2ccccc2)c1 [Compound 5334671],16.9,–
O=C(NCC1OCCc2ccccc21)c1ccc(NC(=O)c2ccc(Cl)cc2)cc1 (centres unmarked) [Compound 5212443],13,–
CN(C)c1ccc(NC(=O)CN2C(=O)CC(c3ccccc3)=Nc3ccccc32)cc1 [Compound 656131],9.97,–
O=C(N/N=C\C=C\c1ccco1)c1cc(-c2ccc3ccccc3c2)[nH]n1 [Compound 6030986],8.1,–
COc1ccc(/C=C2/C(=O)N(c3nc4ccccc4s3)N=C2CSc2ccc(Cl)cc2)cc1 [Compound 5727347],10.2,–
COC(=O)/C(=C1/Oc2cc3c(cc2S1)OCO3)C(F)(F)F [Compound 3237460],135,–
O=C(CN1CCc2ccccc21)Nc1ccc2c(c1)OCO2 [Compound 2064203],8.97,–
CC(C)CCn1c(SCC(=O)N2CC(=O)Nc3ccccc32)nc2scc(-c3cccs3)c2c1=O [Compound 2566842],7.57,–
COc1ccc(C(=O)CSc2nnc(NC(=O)C3CC(=O)N(c4ccccc4)C3)s2)cc1 (centres unmarked) [Compound 12006105],9.85,–
Cc1cc(C)cc(NC(=O)Cn2c(=O)oc3cc(S(=O)(=O)N4CCC(C)CC4)ccc32)c1 [Compound 9551541],8.23,–
CCc1nc(SCC(=O)Nc2nnc(CC)s2)c2c(C)c(C)sc2n1 [Compound 3197508],8.48,–
Cc1oc(-c2ccc(Cl)cc2)cc1-c1nn2c(-c3ccoc3C)nnc2s1 [Compound 2145570],8.25,–

Compound,EC50 [µM],EC50 E320A
Cc1cc(C)c(NC(=O)Cn2c(=O)n(Cc3ccco3)c(=O)c3ccccc32)c(C)c1 [Compound 3237376],12.2,–
Cc1ccc(-c2cc(C(=O)Nc3ccc(S(=O)(=O)Nc4nccs4)cc3)c3ccccc3n2)c(C)c1 [Compound 1358622],13.7,–
O=C(Nc1nc(-c2ccncc2)cs1)c1ccco1 [Compound 2081288],12.7,–
CN(CCC#N)C(=O)COC(=O)c1c2c(nc3ccccc13)/C(=C/c1ccco1)CC2 [Compound 5801934],7.85,–
O=C1NC(=S)N(C2CC2)C(=O)/C1=C/c1ccc2c(c1)CCN2CCCCl [Compound 1993471],164,–
CCOc1ccc(-c2nnc3ccc(SCC(=O)Nc4nc5ccc(C)cc5s4)nn23)cc1 [Compound 12005911],12.1,–
O=C(CC1Nc2ccccc2NC1=O)Nc1ccccc1 (centres unmarked) [Compound 2829724],18.3,–
COc1cccc(OCc2cc(/C=N/NC(=O)c3nc(Cl)c(Cl)c(N)c3Cl)ccc2OC)c1 [Compound 6881723],7.33,–
O=C(CSc1nnc2c3ccccc3c3ccccc3c2n1)Nc1ccccc1F [Compound 6402388],11.2,–
CCN(CC)c1ccc(C(=O)OCC(=O)Nc2cc3oc4ccccc4c3cc2OC)cc1 [Compound 2078838],72.4,–
O=C(/C=C/c1ccco1)c1ccc(NC(=O)C23CC4CC(CC(C4)C2)C3)cc1 [Compound 7424594],10.3,–
CC(=O)c1ccc(N2C(=O)C3C(C2=O)C(C(=O)c2ccc(Cl)cc2)N2CCCC32)cc1 (centres unmarked) [Compound 665589],14.5,–
CC1CCN(Cc2ccc(NC(=O)C3CCN(c4nnc(-n5cccc5)s4)CC3)cc2)CC1 [Compound 5309189],14.2,–
COc1ccc2c(c1)cc(C)c1nnc(SCC(=O)N(C)c3nc(-c4ccccc4)cs3)n12 [Compound 1135734],9.42,–
NS(=O)(=O)c1ccc(NC(=S)NC(=O)c2ccc(-c3ccccc3)cc2)cc1 [Compound 1011163],12.9,–
C=CCN(CC=C)S(=O)(=O)c1ccc(C(=O)Nc2sc3c(c2C(N)=O)CCCCC3)cc1 [Compound 3395368],8.78,–
COCCNC(=S)N/N=C/c1ccc(OCc2ccc(C(=O)OC)cc2)cc1 [Compound 6892710],12.4,–
Cc1[nH]nc2ncc(C(=O)c3cc(Cl)cc(Cl)c3O)cc12 [Compound 2421294],9.81,–
O=C(Cn1c2ccccc2c(=O)c2ccccc21)N/N=C/c1ccc(N2CCCC2)c([N+](=O)[O-])c1 [Compound 5347156],13.7,–
NC(=S)N/N=C/c1coc2cc(Cl)ccc2c1=O [Compound 6879466],171,–
COc1ccccc1-c1cc(C(=O)Nc2sc3c(c2C#N)CCC(C)C3)c2ccccc2n1 (centres unmarked) [Compound 3272728],10.8,–
